Results: the supplement of paper PMC13380429

Assays:
[1] = system: A549-ACE2 infected with SARS-CoV-2; test: morphology score (similarity to uninfected cells); higher = more like uninfected cells; settings: 24 h
Vero E6 [2] = test: cell viability relative to DMSO; higher = less toxic; settings: 72 h
U2OS [3] = test: as above; settings: 72 h
Calu-3 [4] = test: as above; settings: 72 h
HepG2 [5] = test: as above; settings: 72 h
Caco-2 [6] = test: as above; settings: 72 h
[7] = system: A549-ACE2 infected with SARS-CoV-2; test: SARS-CoV-2 infection rate relative to DMSO; higher = more infection; settings: 24 h
[8] = system: A549-ACE2 infected with SARS-CoV-2; test: cell count relative to DMSO; higher = less toxic; settings: 24 h
Vero E6 [9] = test: drug sensitivity score (DSS) for viability; higher = more toxic; extreme values may be limits of the assay; settings: 72 h
U2OS [10] = test: as above; settings: 72 h
Calu-3 [11] = test: as above; settings: 72 h
HepG2 [12] = test: as above; settings: 72 h
Caco-2 [13] = test: as above; settings: 72 h
A549-ACE2 [14] = test: phospholipidosis EC50; higher = less potent phospholipidosis inducer
A549-ACE2 [15] = test: drug-induced phospholipidosis relative to tamoxifen; higher = more phospholipidosis
Vero E6 [16] = test: relative viability EC50 (midpoint between 100% and the lowest measured viability); higher = less toxic; settings: 72 h
U2OS [17] = test: as above; settings: 72 h
Calu-3 [18] = test: as above; settings: 72 h
HepG2 [19] = test: as above; settings: 72 h
Caco-2 [20] = test: as above; settings: 72 h

O=C(NCCCN1CCC2(CC1)OCc1ccccc12)[C@H]1CCCN1Cc1ccccc1 [BAN-ORL-24]
Settings | SARS-CoV-2 infection rate [%] | cell count [%] | cell viability [%] | morphology score | phospholipidosis EC50 [µM]
A549-ACE2 [14], 24 h | – | – | – | – | 9.61
A549-ACE2 [14], 48 h | – | – | – | – | 9.12
A549-ACE2 [14], 72 h | – | – | – | – | 15
Caco-2 [6], 1 nM | – | – | 98.3 | – | –
Caco-2 [6], 10 nM | – | – | 103 | – | –
Caco-2 [6], 100 nM | – | – | 101 | – | –
Caco-2 [6], 1000 nM | – | – | 105 | – | –
Caco-2 [6], 10000 nM | – | – | 92.1 | – | –
Calu-3 [4], 1 nM | – | – | 104 | – | –
Calu-3 [4], 10 nM | – | – | 108 | – | –
Calu-3 [4], 100 nM | – | – | 114 | – | –
Calu-3 [4], 1000 nM | – | – | 105 | – | –
Calu-3 [4], 10000 nM | – | – | 87.1 | – | –
HepG2 [5], 1 nM | – | – | 97.5 | – | –
HepG2 [5], 10 nM | – | – | 109 | – | –
HepG2 [5], 100 nM | – | – | 103 | – | –
HepG2 [5], 1000 nM | – | – | 98.7 | – | –
HepG2 [5], 10000 nM | – | – | 89.2 | – | –
U2OS [3], 1 nM | – | – | 105 | – | –
U2OS [3], 10 nM | – | – | 105 | – | –
U2OS [3], 100 nM | – | – | 104 | – | –
U2OS [3], 1000 nM | – | – | 104 | – | –
U2OS [3], 10000 nM | – | – | 99.2 | – | –
Vero E6 [2], 1 nM | – | – | 94.8 | – | –
Vero E6 [2], 10 nM | – | – | 95.8 | – | –
Vero E6 [2], 100 nM | – | – | 91.6 | – | –
Vero E6 [2], 1000 nM | – | – | 93.2 | – | –
Vero E6 [2], 10000 nM | – | – | 99.5 | – | –
[1], 0.3 µM | – | – | – | -0.05 | –
[1], 3 µM | – | – | – | 0.69 | –
[1], 10 µM | – | – | – | 0.81 | –
[1], 30 µM | – | – | – | 0.69 | –
[7], 0.3 µM | 98 | – | – | – | –
[7], 3 µM | 59 | – | – | – | –
[7], 10 µM | 33 | – | – | – | –
[7], 30 µM | 18 | – | – | – | –
[8], 0.3 µM | – | 98 | – | – | –
[8], 3 µM | – | 117 | – | – | –
[8], 10 µM | – | 117 | – | – | –
[8], 30 µM | – | 123 | – | – | –

Settings | drug sensitivity score | relative viability EC50
Caco-2 [13] | 0 | –
Caco-2 [20] | – | > 10000 nM
Calu-3 [11] | 0 | –
Calu-3 [18] | – | > 10 µM
HepG2 [12] | 0 | –
HepG2 [19] | – | > 10 µM
U2OS [10] | 0 | –
U2OS [17] | – | > 10 µM
Vero E6 [9] | 0 | –
Vero E6 [16] | – | > 10 µM

drug-induced phospholipidosis [%], A549-ACE2 [15]
Settings | 0.3 µM | 0.833333 µM | 3.33333 µM | 6.66667 µM | 10 µM | 30 µM
24 h | 0.49 | 5.2 | 25.6 | 45.9 | 72.6 | 109
48 h | 2.06 | 7.81 | 23.6 | 36.2 | 59.3 | 110
72 h | 5.31 | 9.96 | 24.4 | 35 | 56.6 | 125

NS(=O)(=O)C#Cc1ccccc1 [pifithrin-mu]
Settings | SARS-CoV-2 infection rate, [7] [%] | cell count, [8] [%] | cell viability, Caco-2 [6] [%] | cell viability, Calu-3 [4] [%] | cell viability, HepG2 [5] [%] | cell viability, U2OS [3] [%] | cell viability, Vero E6 [2] [%] | morphology score, [1]
1 nM | – | – | 97.2 | 107 | 104 | 99.8 | 100 | –
10 nM | – | – | 100 | 99 | 89.3 | 97.5 | 95.5 | –
0.1 µM | 104 | 98 | – | – | – | – | – | -0.1
100 nM | – | – | 102 | 98.4 | 91.1 | 97.2 | 94.4 | –
0.3 µM | 106 | 98 | – | – | – | – | – | -0.19
1 µM | 90 | 101 | – | – | – | – | – | 0.29
1000 nM | – | – | 92.4 | 111 | 104 | 95.7 | 98.4 | –
3 µM | 101 | 99 | – | – | – | – | – | -0.06
10000 nM | – | – | 37.8 | 89.7 | 54.3 | 20 | 77.9 | –

Settings | drug sensitivity score | relative viability EC50
Caco-2 [13] | 4.7 | –
Caco-2 [20] | – | 2170 nM
Calu-3 [11] | 0 | –
Calu-3 [18] | – | > 10 µM
HepG2 [12] | 2 | –
U2OS [10] | 5 | –
U2OS [17] | – | 2.75 µM
Vero E6 [9] | 1 | –
Vero E6 [16] | – | > 10 µM

drug-induced phospholipidosis [%], A549-ACE2 [15]
Settings | 0.3 µM | 0.833333 µM | 3.33333 µM | 6.66667 µM | 10 µM | 30 µM
24 h | 2.1 | 0.49 | 1.97 | 5.31 | 12.1 | -1.3
48 h | 2.3 | -0.12 | 0.23 | 3.31 | 7.4 | –
72 h | 3.99 | -0.0686 | 0.345 | 0.553 | 1.82 | –

CC1=C(C(=O)OC2CCCCC2)C(c2ccc([N+](=O)[O-])cc2)C2=C(CC(C)(C)CC2=O)N1 (stereo not given) [FLI-06]
Settings | SARS-CoV-2 infection rate, [7] [%] | cell count, [8] [%] | cell viability, Caco-2 [6] [%] | cell viability, Calu-3 [4] [%] | cell viability, HepG2 [5] [%] | cell viability, U2OS [3] [%] | cell viability, Vero E6 [2] [%] | morphology score, [1]
1 nM | – | – | 102 | 104 | 98.5 | 101 | 94.2 | –
10 nM | – | – | 101 | 106 | 102 | 100 | 92.2 | –
0.1 µM | 111 | 99 | – | – | – | – | – | -0.06
100 nM | – | – | 100 | 92.3 | 101 | 98.7 | 96.6 | –
0.3 µM | 100 | 104 | – | – | – | – | – | -0.11
1 µM | 101 | 99 | – | – | – | – | – | 0.02
1000 nM | – | – | 98 | 106 | 108 | 100 | 103 | –
3 µM | 51 | 101 | – | – | – | – | – | 0.52
10000 nM | – | – | 19.1 | 21.8 | 38.8 | 9.6 | 14.2 | –

Settings | drug sensitivity score | relative viability EC50
Caco-2 [13] | 4.7 | –
Caco-2 [20] | – | 2990 nM
Calu-3 [11] | 3.9 | –
Calu-3 [18] | – | 3.53 µM
HepG2 [12] | 2.8 | –
HepG2 [19] | – | 3.72 µM
U2OS [10] | 5.1 | –
U2OS [17] | – | 3.16 µM
Vero E6 [9] | 4.5 | –
Vero E6 [16] | – | 3.36 µM

drug-induced phospholipidosis [%], A549-ACE2 [15]
Settings | 0.3 µM | 0.833333 µM | 3.33333 µM | 6.66667 µM | 10 µM | 30 µM
24 h | -0.85 | 2.59 | 9.31 | 10.3 | 4.47 | 3.32
48 h | 3.76 | 2.95 | -2.25 | -3.67 | – | –
72 h | 4.47 | 2.39 | -2.58 | – | – | –

Cc1ccc(-c2cc(C(F)(F)F)nn2-c2ccc(S(N)(=O)=O)cc2)cc1 [celecoxib]
cell viability [%]
Settings | Caco-2 [6] | Calu-3 [4] | HepG2 [5] | U2OS [3] | Vero E6 [2]
1 nM | 99.1 | 99.4 | 115 | 92.4 | 101
10 nM | 79.8 | 100 | 98.4 | 99.6 | 85.4
100 nM | 105 | 98.2 | 99.3 | 92.4 | 102
1000 nM | 90.6 | 101 | 100 | 97.7 | 94.1
10000 nM | 103 | 114 | 95.1 | 98.4 | 104

Settings | drug sensitivity score | relative viability EC50
Caco-2 [13] | 0 | –
Caco-2 [20] | – | > 10000 nM
Calu-3 [11] | 0 | –
Calu-3 [18] | – | > 10 µM
HepG2 [12] | 0 | –
HepG2 [19] | – | > 10 µM
U2OS [10] | 0 | –
U2OS [17] | – | > 10 µM
Vero E6 [9] | 0 | –
Vero E6 [16] | – | > 10 µM
